Experimental data reported in article PMC10254366, “The Structure of Maltooctaose-Bound Escherichia coli Branching Enzyme Suggests a Mechanism for Donor Chain Specificity” (Molecules, 2023).

Molecular target: T1, EcBE (E. coli branching enzyme) (Escherichia coli, UniProt P07762)
T1 construct: gene glgB; N-domain removed (first 113 amino acids of full-length EcBE); CBM48, catalytic and C-terminal domains kept; overexpressed in E. coli; four molecules per asymmetric unit
T1 sequence (P07762 114-728): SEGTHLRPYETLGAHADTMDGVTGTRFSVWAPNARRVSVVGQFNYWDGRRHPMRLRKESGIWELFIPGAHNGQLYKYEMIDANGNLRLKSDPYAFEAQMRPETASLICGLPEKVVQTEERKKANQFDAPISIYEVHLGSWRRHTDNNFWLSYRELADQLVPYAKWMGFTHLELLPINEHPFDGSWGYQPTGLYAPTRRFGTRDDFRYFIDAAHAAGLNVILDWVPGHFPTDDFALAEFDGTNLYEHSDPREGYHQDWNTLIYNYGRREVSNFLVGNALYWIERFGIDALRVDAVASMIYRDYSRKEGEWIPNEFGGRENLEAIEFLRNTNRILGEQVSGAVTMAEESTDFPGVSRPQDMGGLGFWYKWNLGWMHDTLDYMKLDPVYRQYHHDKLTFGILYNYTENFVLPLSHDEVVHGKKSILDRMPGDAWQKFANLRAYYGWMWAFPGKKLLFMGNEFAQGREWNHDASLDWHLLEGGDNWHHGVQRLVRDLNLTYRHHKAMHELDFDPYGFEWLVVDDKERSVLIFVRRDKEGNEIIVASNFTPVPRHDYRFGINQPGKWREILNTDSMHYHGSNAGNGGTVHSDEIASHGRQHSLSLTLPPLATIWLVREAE
Assay: X-ray crystallography, crystal soak, […] Å
Type: binding
Settings: crystals soaked in 150 mM maltooctaose 5.5 h, 1.3 M ammonium tartrate pH 7.6, 10% PEG 4000; surface sites I-V and VIII-XII, not active site

SMILES: OC[C@H]1O[C@H](O[C@H]2[C@H](O)[C@@H](O)[C@@H](O[C@H]3[C@H](O)[C@@H](O)[C@@H](O[C@H]4[C@H](O)[C@@H](O)[C@@H](O[C@H]5[C@H](O)[C@@H](O)[C@@H](O[C@H]6[C@H](O)[C@@H](O)[C@@H](O[C@H]7[C@H](O)[C@@H](O)[C@@H](O[C@H]8[C@H](O)[C@@H](O)C(O)O[C@@H]8CO)O[C@@H]7CO)O[C@@H]6CO)O[C@@H]5CO)O[C@@H]4CO)O[C@@H]3CO)O[C@@H]2CO)[C@H](O)[C@@H](O)[C@@H]1O (stereo partly shown) [M8, maltooctaose]
- X-ray crystallography, crystal soak, 3.0 Å: we report the crystal structure of the maltooctaose-bound branching enzyme from the enterobacteria E. coli
